Like-named read-outs stand apart in the source and are kept apart here.
Columns and labels:
BALB/c mice = assay: Reversal of immunosenescence: HBsAg vaccination of aged mice; assay type: in vivo; details: for mice producing anti-HBsAg in response to secondary vaccination: groups of 8, 0.3 mg/mouse at primary vaccination; for mice with increased anti-HBsAg antibody titer following secondary vaccination: groups of 8, 3 mg/mouse at primary vaccination
Protocol: Healthy aged (20-month) or immunologically-mature (3-month) BALB/c mice were vaccinated with hepatitis B surface antigen (HBsAg) (2 μg; Recombivax-HB; Merck) and Alum (2.75 μg). The aged mice were vaccinated with the antigen and also received a single subcutaneous injection of either 0.3 mg or 3.0 mg of 3β,7β,17β-trihydroxyandrost-5-ene (AET), BrEA or 7-oxodehydroepiandrosterone, dehydroepiandrosterone or the vehicle (placebo control). The AET, BrEA hemihydrate or dehydroepiandrosterone was present in a formulation that contained 60 mg/mL of the compound suspended in 0.1% w/v carboxymethyl cellulose sodium in 0.9% saline. 7-Oxodehydroepiandrosterone was in a formulation that contained 60 mg/mL of the compound suspended in 0.1% w/v gum arabic in 0.9% saline. A concentration of 6 mg/mL was obtained by diluting the 60 mg/mL formulation with vehicle that lacked the active substance.
Blood samples were collected 14, 21 and 34 days after treatment and the sera were analyzed by ELISA to determine the concentration of HBsAg-specific IgG (total IgG). In addition, samples obtained on day 21 were analyzed to determine the concentration of HBsAg-specific IgG1 and IgG2a subclasses. The results summarized below were average values obtained with blood samples collected 21 days after vaccination of groups of 8 mice. Subcutaneous injection was performed after shaving the hair from the thighs of each mouse. The injected volume was 50 μL for compound (3.0 mg or 0.3 mg) or placebo, and for vaccine preparation. The vehicle control consisted of carboxymethylcellulose (0.5%) in saline (0.9%). Antibody titers were determined by ELISA.
Secondary antibody response. Later, 42 days after the initial exposure to HBsAg, serum samples were taken from the mice described in the previous section and these were tested for anti-HBsAg IgG. At this time-point, vaccine-specific IgG titers were either low or undetectable. Three days later (45 days after first vaccination), the mice were injected again with HBsAg in Alum, but this time, none of the mice received immunosteroid (secondary vaccination). Serum samples collected 7 days and 14 days after the second exposure to HBsAg vaccine were assayed for anti-HBsAg antibody. […] In contrast, in aged mice that had received no immunosteroid with the first HBsAg injection, low levels of anti-HBsAg were detectable, and only in 4 of the 8 mice in this group was antibody detectable. Increases in anti-HBsAg titers were seen following secondary vaccination in aged animals that had been treated with immunosteroid in conjunction with the first HBsAg exposure. The anti-HBsAg antibody titer in serum increased following secondary vaccination in all 8 mice in the groups of aged mice that were treated at primary vaccination with the higher dose (3 mg/mouse) of AET, BrEA or 7-oxodehydroepiandrosterone, or with dehydroepiandrosterone (0.3 mg/mouse). In those aged mice that had received the lower dose (0.3 mg/mouse) of AET, BrEA or 7-oxodehydroepiandrosterone at vaccination, an intermediate response was seen, with 6 of the 8 mice producing detectable anti-HBsAg in response to secondary vaccination.

Sprague Dawley rats = assay: TNBS induced distal colitis in rats; assay type: in vivo; details: day 14
Protocol: In another protocol formula 1 compounds were used in a similar animal model. Groups of 10 male Sprague Dawley rats (250-300 grams) were fasted for 24 hours before 2,4,6-trinitrobenzene sulfonic acid (TNBS) or saline challenge. This model presents a severe challenge to the animal's immune system. On Day 0, the rats were lightly anesthetized and a catheter inserted rectally into the colon such that the tip was 8 cm proximal to the anus. Distal colitis was induced by intra-colonic instillation of 0.5 mL of an ethanolic solution of TNBS (60 mg/mL ethanol 50% in water). The test substance, 7-oxodehydroepiandrosterone 20 mg/mL in vehicle or vehicle control was administered by subcutaneous injection (0.1 mL/injection) once a day for 6 days, the first dose being given 30 minutes after TNBS challenge. Sulfasalazine (30 mg/mL in 2% Tween 80 in distilled water) or vehicle control was administered orally (PO) once a day (10 mL/kg/day) for 7 days, the first two doses beginning 24 hours and 2 hours before […] challenge. Signs of diarrhea were recorded daily by examining the anal area. Animals were fasted for 24 hours prior to sacrifice on day 14 and the colon was removed and weighed. After gross observations of colonic tissues, 3 samples were taken from regions approximately 1, 3, and 8 cm proximal to the anus. If gross ulcers or inflammation were present, at least one sample was taken from the affected region. Before removal of the colon, signs of adhesion between the colon and other organs were recorded. […] Body weight, colon-to-body-weight ratio, and damage scores were assessed. Visible damage was scored on a 1-5 scale as follows: 0=No damage; 1=Localized hyperemia but no ulcers; 2=linear ulcers with no significant inflammation; 3=Linear ulcers with inflammation at one site; 4=Two or more sites of ulceration and/or inflammation; 5=Two or more major sites of ulceration and inflammation or one major site of ulceration and inflammation extending more than 1 cm along the length of the colon. […]

Wistar rats = assay: DNBS induced distal colitis in rats; assay type: in vivo; details: for adhesions / colonic ulceration / diarrhea: DNBS rats; for adhesions / colonic ulceration: first study, groups of 3; for diarrhea: 7-oxodehydroepiandrosterone 2 and 20 mg/mL s.c., sulfasalazine PO, AET 20 mg/kg; for animals with moderate acute inflammation: 5 of 10 in immunosteroid vehicle controls; for animals with severe chronic inflammation: 14 days after DNBS challenge, 8 of 10 in immunosteroid vehicle controls
Protocol: Groups of 3 male Wistar rats (180±20 grams) fasted for 24 hours before 2,4-dinitrobenzene sulfonic acid (DNBS) or saline challenge were used. Distal colitis was induced by intra-colonic instillation of 0.5 mL of an ethanolic solution of DNBS (30 mg in 0.5 mL of a 30% ethanol in saline solution) after which 2 mL of air was injected through the cannula to ensure that the solution remained in the colon. The volume used was 0.1 mL per injection of 2 and 20 mg/mL of 7-oxodehydroepiandrosterone in a liquid formulation, was administered by subcutaneous injection once a day for 6 days. The formulation contained […] of 7-oxodehydroepiandrosterone in a non-aqueous suspension that contained 2% benzyl alcohol w/v, 0.1% Brij 96 w/v and equal volumes of PEG 300 and propylene glycol. Concentrations of 2 mg/mL and 20 mg/mL were obtained by diluting the […] with vehicle that lacked the active substance.
The first dose was given 30 minutes after DNBS challenge. Sulfasalazine (30 mg/mL in 2% Tween 80 in distilled water) was administered orally (PO) once a day (10 mL/kg/day) for 7 days, the first two doses beginning 24 hours and 2 hours before DNBS challenge. The presence of diarrhea was recorded daily by examining the anal area. Animals were fasted for 24 hours prior to being sacrificed. Animals were sacrificed on day 7 or day 8 and their colons were removed and weighed. Before removal of the colon, signs of adhesion between the colon and other organs were recorded. Also, the presence of ulcerations was noted after weighing of each colon. The “net” change of colon-to-body weight (BW) ratio was normalized relative to saline-challenged baseline group. A 30% decrease in “net” colon-to-body weight ratio was considered significant.
A total of five studies were conducted. Data from the first study are reported in this report. The 7-oxodehydroepiandrosterone at 2 and 20 mg/mL, decreased the net colon-to-body weight ratio by 19 and by 14% relative to vehicle-treated group, respectively. […] The formula 1 compound 3β,7β,17β-trihydroxyandrost-5-ene (AET) was administered by subcutaneous injections of 2 and 20 mg/day for 5 or 6 days, with the first dose injected 30 minutes post-DNBS challenge. The AET formulation was the same as the 7-oxodehydroepiandrosterone formulation, except that AET replaced 7-oxodehydroepiandrosterone. AET decreased the net colon-to-body weight ratio by 15% and 21% relative to controls (see the table below). Animals treated with AET (20 mg/kg) had no diarrhea. […] The same formulations containing BrEA hemihydrate (100 mg/mL) or dehydroepiandrosterone (20 mg/mL) decreased the net colon-to-body weight ratio by 21 and 3%, respectively relative to controls.

Plasmodium berghei = assay: Lewis rat in vivo parasitemia study; details: Lewis rats, chloroquine 40 mg/kg i.v. days 0-3
[1] = tested on: Chloroquine sensitive T996/86 P. falciparum; assay: In vitro antimalarial testing (schizont inhibition / 3H-hypoxanthine incorporation); assay type: cell-based
Protocol: For in vitro antimalarial testing, micro-titer plates were used. The concentration of drugs were prepared as pMol/well according to WHO standard procedures (WHO, 1990). The test compound was dissolved in 15% DMSO in sterile RPMI-1640. Both chloroquine sensitive (e.g., WS/97) and resistant (e.g., MN/97) isolates of Plasmodium species are used.
A schizont inhibition assay was performed as follows. The micro-titer plates were predosed with various concentrations of the test compound. 50 μL of parasitised erythrocyte suspension in RPMI-1640 (0.2 mL erythrocyte+0.3 mL serum+4-5 ml RPMI-1640) were dispensed in microtiter wells that contained various concentrations of drug. Triplicate readings were made for each concentration.
A ^3H-hypoxanthine incorporation assay was performed as follows. The testing was carried out according to the procedure of Desjardins et al. 1979. After 30 hr culture at 37 degrees C., the same microtiter plates from schizont inhibition assays with another triplicate wells were pulsed with ^3H-hypoxanthine for overnight. The cell suspensions were washed twice on millipore glass fiber filter with Millipore filter apparatus. The filter discs were counted for DPM by a Beckman LS6000 β-scintillation counter. The activity of the drug was measured by plotting DPM against concentration of drug.

P. berghei HP15 ANKA = assay: Four-day in vivo suppressive test in TO mice; design: species or system Plasmodium berghei; details: day 5 blood films, 5 equals control
Protocol: The 4-day suppressive test has been widely used and it can be performed within a 1 week period. The test consists of the inoculation of parasitised erythrocytes on the first day of the experiment (D0), followed by an injection of the test compound, which is also administered on the 2nd, 3rd and 4th days of the protocol. On the 5th day, blood films are taken and antimalarial activity is assessed either by calculating parasitemia, or by scoring parasite numbers on a predetermined scale (i.e., 1-5).
The protocol is summarized as follows. Five female TO mice were used per test group. P. berghei HP15 ANKA parasites were collected by cardiac puncture using a heparinised syringe from a donor mouse having a 30+% parasitaemia. The blood was diluted with diluting agent (50% HIFCS+50% sterile PBS) to a final concentration of 1% parasitaemia or 1×10^7 infected erythrocytes per 0.2 mL of the infecting suspension. […] The steroid formulations were administered intraperitoneally 2 hours after parasite inoculation. The compounds were administered once a day starting on Do, and continued on the following three days. Blood films were made from tail blood on the day after the last dosing of compound and the blood was fixed with 100% methanol and stained with 10% Giemsa. Parasitaemias were scored on a scale of 0-5, where 5 is equal to the control.
An inoculum of 1% parasitaemia […], 0.2 mL per mouse (female strain TO mice), was delivered by intravenous injection. Drug administration commenced 2 hours after inoculation on Day 1 and continued for 3 days.

[2] = T996/86 P. falciparum in vitro, read-out: IC50

C[C@]12CC[C@H](O)CC1=CC(=O)[C@@H]1[C@@H]2CC[C@]2(C)C(=O)CC[C@@H]12 [7-oxodehydroepiandrosterone] was tested, and the “mice producing anti-HBsAg in response to secondary vaccination” value (BALB/c mice) was 6 mice, the “mice with increased anti-HBsAg antibody titer following secondary vaccination” value (BALB/c mice) was 8 mice and the “histopathology: inflammation / lesion frequency and severity versus controls” value (Sprague Dawley rats) was “exacerbated the inflammation”. For the same compound, the adhesions (Wistar rats) was “Adhesions were absent in all three tested animals”, the colonic ulceration (Wistar rats) was 1/3 and the diarrhea (Wistar rats) was “All animals had diarrhea”.
With C[C@]12CC[C@H]3[C@@H]([C@@H](O)C=C4C[C@@H](O)CC[C@@]43C)[C@@H]1CC[C@@H]2O [AET, 3β,7β,17β-trihydroxyandrost-5-ene] the “mice producing anti-HBsAg in response to secondary vaccination” value (BALB/c mice) was 6 mice, the “mice with increased anti-HBsAg antibody titer following secondary vaccination” value (BALB/c mice) was 8 mice and the “animals with moderate acute inflammation” value (Wistar rats; 7 days after DNBS challenge) was 6 animals. For the same compound, the “animals with severe chronic inflammation” value (Wistar rats) was 3 animals, the animals with ulcers (Wistar rats; 14 days after challenge, treatment began the same day as challenge) was 1 animal and the adhesions (Wistar rats) was “Adhesion was absent”. The diarrhea (Wistar rats) was “no diarrhea”.
For CCN(CC)CCCC(C)Nc1ccnc2cc(Cl)ccc12 (centres unmarked) [Chloroquine, reference compound], the “% RBC parasitemia” value (Plasmodium berghei; Day 4, saline control 16%) was 10%, the “% RBC parasitemia” value (Plasmodium berghei; Day 11, saline control 36%) was 16% and the IC50 ([1]; Plasmodium falciparum, T996) was 0.009 µM. The inhibition at 0.00625 µM ([1]; Plasmodium falciparum, T996) was 27.2%, the inhibition at 0.0125 µM ([1]; Plasmodium falciparum, T996) was 86.8% and the inhibition at 0.025 µM ([1]; Plasmodium falciparum, T996) was 94.5%. It also gave an inhibition at 0.05 µM ([1]; Plasmodium falciparum, T996) of 97.3%, an inhibition at 0.1 µM ([1]; Plasmodium falciparum, T996) of 94.6% and an inhibition at 0.2 µM ([1]; Plasmodium falciparum, T996) of 95.9%. For the same compound, the “Parasitaemia Score (0-5)” value (P. berghei HP15 ANKA; 3 mg/kg × 4 days i.p.) was 1.
In the case of O=C(O)c1cc(/N=N/c2ccc(S(=O)(=O)Nc3ccccn3)cc2)ccc1O [Sulfasalazine], the “animals with severe acute inflammation” value (Wistar rats; 7 days after DNBS challenge, 3 of 10 in immunosteroid vehicle controls) is reported as 3 animals, the “animals with moderate acute inflammation” value (Wistar rats; 7 days after DNBS challenge) is reported as 6 animals and the “animals with severe chronic inflammation” value (Wistar rats) is reported as 2 animals. The adhesions (Wistar rats) was “no animals exhibited adhesions or colonic ulceration”, the colonic ulceration (Wistar rats) was “no animals exhibited adhesions or colonic ulceration” and the diarrhea (Wistar rats) was “all animals treated with Sulfazalazine had diarrhea”.
Etianic Acid Methyl Ester was tested, and the “% inhibition” value ([1]; 0.938 μM) was 47.1%, the “% inhibition” value ([1]; 1.875 μM) was 43.4% and the “% inhibition” value ([1]; 3.25 μM) was 41.4%. The “% inhibition” value ([1]; 7.5 μM) was 45.3%, the “% inhibition” value ([1]; 15 μM) was 47.4% and the “% inhibition” value ([1]; 30 μM) was 61.5%. It also gave an IC50 [1, 2] of 17.5 µM.
In the case of Etienic Acid, the “Parasitaemia Score (0-5)” value (P. berghei HP15 ANKA; 100 mg/kg × 4 days i.p.) is reported as 2.
In the case of Etienic Acid Methyl Ester, the “% inhibition” value ([1]; 0.938 μM) is reported as 43.3%, the “% inhibition” value ([1]; 1.875 μM) is reported as 41% and the “% inhibition” value ([1]; 3.25 μM) is reported as 46%. For the same compound, the “% inhibition” value ([1]; 7.5 μM) was 40.9%, the “% inhibition” value ([1]; 15 μM) was 45.7% and the “% inhibition” value ([1]; 30 μM) was 60%. The IC50 [1, 2] was 19.5 µM.
